Results reported in US8507463B2, “Nucleotide analogue prodrug and the preparation thereof” (Jiangsu Chia Tai Tianqing Pharmaceutical Co., Ltd., priority 2005, dated 2013).
Structures can show the parent of a compound that is named as a salt. Where two headings read alike, the source gives them in different places. Each block holds one molecule with its values, some of them ahead of it.

What was measured:
[1] = High temperature test (60° C.); format: physicochemical; conditions: sealed ampoules
Experimental: Samples were sealed in clean glass ampoules and put in 60° C. thermostatic drying chamber, then they were taken on the fifth and tenth day respectively for determination, compared with the result of day 0, results were listed in the table below:
Samples were sealed in clean glass ampoules and put in 60° C. thermostatic drying chamber, then they were taken on the fifth and tenth day respectively for determination, compared with the result of day 0, results were listed in the table below

[2] = format: physicochemical; conditions: for amount of solvent (ml), 0.1N HCl / amount of solvent (ml), 0.1N NaOH / amount of solvent (ml), anhydrous ethanol / amount of solvent (ml), methanol / amount of solvent (ml), water: to dissolve 1 g of sample
[3] = Acceleration test (40° C., relative humidity 75%); format: physicochemical
Experimental: Samples were sealed with polyethylene plastic bags, placed in the thermostatic drying chamber at 40±2° C. with relative humidity of 75±5% for 3 months. Then the samples were taken at the end of the first, second and third month respectively for determination, compared with the result of day 0, results were listed in the table below: […]

[4] = Light exposure test (4500±500 Lx); format: physicochemical; conditions: light 4500±500 Lx
Description: Samples were evenly spread out and placed in open culture dishes and the thickness thereof was less than 5 mm, then distances were adjusted until the illumination intensity was 4500±500 Lx, samples were taken on the fifth and tenth day respectively for determination, compared with the result of day 0, results were listed in the table below: […]

[5] = High humidity test (room temperature, relative humidity 75±5%); format: physicochemical; conditions: 25° C.
Experimental: Samples were evenly spread out and placed in open culture dishes, wherein the thickness thereof was less than 5 mm, put in a thermostatic drying chamber at room temperature (25° C.) with relative humidity of 75±5%. Then the samples were taken on the fifth and tenth day respectively for determination, compared with the result of day 0, results were listed in the table below

Duck Hepatitis B Virus = assay: Anti-viral (anti-HBV) test in vivo, DHBV-DNA level by PCR; set-up: species or system GaoYou pockmark ducks; conditions: ducks, once a day, day 0 level as base line of 100
Experimental: Two-month old pockmark ducks vertically infected with Duck Hepatitis B Virus were selected as animal models to conduct anti-HBV test in vivo, the efficacy was investigated. 80 GaoYou pockmark ducks were divided randomly into. 8 groups, 10 ducks per groups, three groups were given TD fumarate at the dosage of 5, 15, 45 mg/kg once a day respectively, other three groups were given Tenofovir Disoproxil Fumarate at the dosage of 5, 15, 45 mg/kg once a day respectively, other one group was given Adefovir Dipivoxil at the dosage of 15 mg/kg once a day and the remaining group was blank control group. All the groups were administered for 28 days, and blood samples were taken every 7 days to determine the inhibitory effect to the DHBV-DNA level by PCR, inhibition rate was listed in the following table.

[6] = Stability analysis, overall conclusion in words; format: physicochemical; conditions: from light, high temperature, high humidity and acceleration tests
[7] = Bioavailability: blood concentration-time from plasma radioactivity; format: in vivo; conditions: mice, intragastric 30 mg/kg
Experimental: 10 mice were randomly divided into 2 groups, 5 per group, intragastricly administered 3H-TD fumarate and Tenofovir Disoproxil Fumarate at 30 mg/kg with radio dose of 135 μCi/kg respectively. Plasm samples in different times were taken to measure the radioactivity, which was then converted into the plasma concentration.
Comparison of the blood concentration (ug/ml)-time of 3H-TD fumarate and Tenofovir Disoproxil Fumarate.

[8] = Acute toxicity test, median lethal dose (LD50); conditions: both sexes, mouse, in vivo, oral, mice, infused into the stomach, observed 14 days
Experimental: TD fumarate and TD crystalline form A were dissolved in 0.1M citric acid aqueous solution respectively, 140 healthy mice with 18˜22 g body-weight was selected, randomly divided into 14 groups, 10 per group, and the number of male and female mice were equal.
Following the preliminary test, TD fumarate and TD crystalline form A were administered to 7 different dosing groups by infusing into the stomach, observed for 14 days consecutively to investigate the toxic reaction and death cases of mice and then LD50 was calculated.

content (%) ([1]; day 0): 99.0%
content (%) ([1]; day 5): 98.9%
content (%) ([1]; day 10): 98.6%
solubility conclusion, 0.1N HCl [2]: not
solubility conclusion, 0.1N NaOH [2]: not soluble
solubility conclusion, anhydrous ethanol [2]: slightly
solubility conclusion, methanol [2]: slightly
amount of solvent (ml), 0.1N HCl [2]: >1000 mL
amount of solvent (ml), 0.1N NaOH [2]: >1000 mL
amount of solvent (ml), anhydrous ethanol [2]: 650 mL
amount of solvent (ml), methanol [2]: 760 mL
amount of solvent (ml), water [2]: >1000 mL
solubility conclusion, water [2]: not soluble
content (%) ([3]; end of month 1): 98.7%
content (%) ([3]; end of month 2): 98.5%
content (%) ([3]; end of month 3): 98.4%
content (%) ([3]; month 0): 99.2%
content (%) ([4]; day 0): 99.2%
content (%) ([4]; day 5): 99.0%
content (%) ([4]; day 10): 99.3%
content (%) ([5]; day 0): 99.2%
Weight gain after moisture absorption (%) ([5]; day 5): 0%
content (%) ([5]; day 5): 99.1%
Weight gain after moisture absorption (%) ([5]; day 10): 0%
content (%) ([5]; day 10): 99.1%
Structure (SMILES): CC(Cn1cnc2c(N)ncnc21)OCP(=O)(OCOC(=O)C(C)(C)C)OCOC(=O)C(C)(C)C.CC1(C)CCC2(C(=O)O)CCC3(C)C(=CCC4C5(C)CCC(O)C(C)(C)C5CCC43C)C2C1 (stereo not shown) [TD oleanolate]

Structure (SMILES): C[C@H](Cn1cnc2c(N)ncnc21)OCP(=O)(OCOC(=O)C(C)(C)C)OCOC(=O)C(C)(C)C [amorphous TD, 9-[2-(R)-[bis[pivaloyloxymethoxy]-phosphinylmethoxy]propyl]adenine]
content (%) ([1]; day 0): 98.5%
content (%) ([1]; day 5): 97.5%
content (%) ([1]; day 10): 97.1%
solubility conclusion, 0.1N HCl [2]: soluble
solubility conclusion, 0.1N NaOH [2]: slightly
solubility conclusion, anhydrous ethanol [2]: freely soluble
solubility conclusion, methanol [2]: freely soluble
amount of solvent (ml), 0.1N HCl [2]: 25.2 mL
amount of solvent (ml), 0.1N NaOH [2]: 613 mL
amount of solvent (ml), anhydrous ethanol [2]: 5.6 mL
amount of solvent (ml), methanol [2]: 2.0 mL
amount of solvent (ml), water [2]: 380 mL
solubility conclusion, water [2]: soluble
water solubility compared with other solid TD forms, in words [2]: better solubility than crystalline TD in water
content (%) ([3]; end of month 1): 92.3%
content (%) ([3]; end of month 2): 88.9%
content (%) ([3]; end of month 3): 82.8%
content (%) ([3]; month 0): 99.0%
content (%) ([4]; day 0): 98.5%
content (%) ([4]; day 5): 98.3%
content (%) ([4]; day 10): 98.1%
content (%) ([5]; day 0): 99.0%
Weight gain after moisture absorption (%) ([5]; day 5): 1.0%
content (%) ([5]; day 5): 97.9%
Weight gain after moisture absorption (%) ([5]; day 10): 2.3%
content (%) ([5]; day 10): 95.8%

Structure (SMILES): C[C@H](Cn1cnc2c(N)ncnc21)OCP(=O)(OCOC(=O)C(C)(C)C)OCOC(=O)C(C)(C)C.O=C(O)/C=C/C(=O)O [TD fumarate]
DHBV-DNA level, First week (Duck Hepatitis B Virus; 5 mg/ml group): 92 ± 7
DHBV-DNA level, Fourth week (Duck Hepatitis B Virus; 5 mg/ml group): 40 ± 5
DHBV-DNA level, Second week (Duck Hepatitis B Virus; 5 mg/ml group): 71 ± 5
DHBV-DNA level, Third week (Duck Hepatitis B Virus; 5 mg/ml group): 50 ± 9
DHBV-DNA level, First week (Duck Hepatitis B Virus; 15 mg/ml group): 78 ± 9
DHBV-DNA level, Fourth week (Duck Hepatitis B Virus; 15 mg/ml group): 25 ± 7
DHBV-DNA level, Second week (Duck Hepatitis B Virus; 15 mg/ml group): 59 ± 8
DHBV-DNA level, Third week (Duck Hepatitis B Virus; 15 mg/ml group): 39 ± 7
DHBV-DNA level, First week (Duck Hepatitis B Virus; 45 mg/ml group): 65 ± 6
DHBV-DNA level, Fourth week (Duck Hepatitis B Virus; 45 mg/ml group): 16 ± 8
DHBV-DNA level, Second week (Duck Hepatitis B Virus; 45 mg/ml group): 43 ± 5
DHBV-DNA level, Third week (Duck Hepatitis B Virus; 45 mg/ml group): 25 ± 10
content (%) ([1]; day 0): 99.5%
content (%) ([1]; day 5): 99.5%
content (%) ([1]; day 10): 99.4%
solubility conclusion, 0.1N HCl [2]: soluble
solubility conclusion, 0.1N NaOH [2]: soluble
solubility conclusion, anhydrous ethanol [2]: freely soluble
solubility conclusion, methanol [2]: freely
amount of solvent (ml), 0.1N HCl [2]: 18.5 mL
amount of solvent (ml), 0.1N NaOH [2]: 65 mL
amount of solvent (ml), anhydrous ethanol [2]: 15.5 mL
amount of solvent (ml), methanol [2]: 7.4 mL
amount of solvent (ml), water [2]: 120 mL
solubility conclusion, water [2]: soluble
water solubility compared with other solid TD forms, in words [2]: better water solubility
stability, overall conclusion in words [6]: good solubility and stabilities
blood concentration ([7]; 10 min): 730 ng/mL
blood concentration ([7]; 30 min): 1440 ng/mL
blood concentration ([7]; 45 min): 1770 ng/mL
blood concentration ([7]; 60 min): 2520 ng/mL
blood concentration ([7]; 90 min): 1340 ng/mL
blood concentration ([7]; 120 min): 1030 ng/mL
blood concentration ([7]; 180 min): 940 ng/mL
blood concentration ([7]; 240 min): 730 ng/mL
blood concentration ([7]; 360 min): 550 ng/mL
blood concentration ([7]; 480 min): 340 ng/mL
LD50 at 14 days ([8]; read-out: LD50): 6050 mg/kg
LD50 at 14 days ([8]; read-out: LD50, 95% confident limit): 4500 to 7870 mg/kg
content (%) ([3]; end of month 1): 99.0%
content (%) ([3]; end of month 2): 98.7%
content (%) ([3]; end of month 3): 98.5%
content (%) ([3]; month 0): 99.3%
content (%) ([4]; day 0): 99.2%
content (%) ([4]; day 5): 99.2%
content (%) ([4]; day 10): 99.1%
content (%) ([5]; day 0): 99.2%
Weight gain after moisture absorption (%) ([5]; day 5): 0%
content (%) ([5]; day 5): 99.1%
Weight gain after moisture absorption (%) ([5]; day 10): 0%
content (%) ([5]; day 10): 99.1%

Structure (SMILES): C[C@H](Cn1cnc2c(N)ncnc21)OCP(=O)(OCOC(=O)C(C)(C)C)OCOC(=O)C(C)(C)C [TD crystalline form B, 9-[2-(R)-[bis[pivaloyloxymethoxy]-phosphinylmethoxy]propyl]adenine]
content (%) ([1]; day 0): 98.8%
content (%) ([1]; day 5): 97.7%
content (%) ([1]; day 10): 97.0%
solubility conclusion, 0.1N HCl [2]: soluble
solubility conclusion, 0.1N NaOH [2]: slightly
solubility conclusion, anhydrous ethanol [2]: freely soluble
solubility conclusion, methanol [2]: freely soluble
amount of solvent (ml), 0.1N HCl [2]: 27.3 mL
amount of solvent (ml), 0.1N NaOH [2]: 790 mL
amount of solvent (ml), anhydrous ethanol [2]: 6.0 mL
amount of solvent (ml), methanol [2]: 1.5 mL
amount of solvent (ml), water [2]: 840 mL
solubility conclusion, water [2]: slightly
stability, overall conclusion in words [6]: good stabilities
content (%) ([3]; end of month 1): 95.8%
content (%) ([3]; end of month 2): 92.7%
content (%) ([3]; end of month 3): 88.7%
content (%) ([4]; day 0): 99.2%
content (%) ([4]; day 5): 98.8%
content (%) ([4]; day 10): 98.7%
content (%) ([5]; day 0): 99.6%
Weight gain after moisture absorption (%) ([5]; day 5): 0%
content (%) ([5]; day 5): 98.2%
Weight gain after moisture absorption (%) ([5]; day 10): 0.2%
content (%) ([5]; day 10): 96.9%

Structure (SMILES): CC(C)OC(=O)OCOP(=O)(CO[C@H](C)Cn1cnc2c(N)ncnc21)OCOC(=O)OC(C)C [Tenofovir Disoproxil Fumarate]
DHBV-DNA level, First week (Duck Hepatitis B Virus; 5 mg/ml group): 90 ± 9
DHBV-DNA level, Fourth week (Duck Hepatitis B Virus; 5 mg/ml group): 50 ± 7
DHBV-DNA level, Second week (Duck Hepatitis B Virus; 5 mg/ml group): 79 ± 5
DHBV-DNA level, Third week (Duck Hepatitis B Virus; 5 mg/ml group): 65 ± 6
DHBV-DNA level, First week (Duck Hepatitis B Virus; 15 mg/ml group): 83 ± 6
DHBV-DNA level, Fourth week (Duck Hepatitis B Virus; 15 mg/ml group): 37 ± 8
DHBV-DNA level, Second week (Duck Hepatitis B Virus; 15 mg/ml group): 66 ± 7
DHBV-DNA level, Third week (Duck Hepatitis B Virus; 15 mg/ml group): 53 ± 5
DHBV-DNA level, First week (Duck Hepatitis B Virus; 45 mg/ml group): 75 ± 9
DHBV-DNA level, Fourth week (Duck Hepatitis B Virus; 45 mg/ml group): 25 ± 7
DHBV-DNA level, Second week (Duck Hepatitis B Virus; 45 mg/ml group): 43 ± 8
DHBV-DNA level, Third week (Duck Hepatitis B Virus; 45 mg/ml group): 35 ± 6
